In patent US4545982A, “Pyranone compounds and skin-lightening cosmetic preparations or local demelanizing agents containing the same” (Yakurigaku Chuo Kenkyusho, priority 1982, dated 1985):

Key:
tyrosinase [1] = assay: Inhibitory action on tyrosinase activity (absorbance at 475 mμ with time); type: biochemical; conditions: 40 μg in 0.9 ml test solution, L-tyrosine, pH 6.8, 37° C., absorbance at 475 mμ with time (FIG. 1)
Procedure: To a test tube were added 0.9 ml of a test solution, containing 40 μg of pyranone described above, which solution was obtained by adding the pyranone to 30% aqueous solution of propylene glycol; 1 ml of L-tyrosine solution (0.3 mg/ml); and 1 ml McIlvaine's buffer solution (pH 6.8), and the mixture was incubated at 37° C. for 10 minutes. 0.1 ml of a tyrosinase solution (1 mg/ml) was then added to the incubated mixture and stirred thoroughly. The absorbance at 475 mμ of the mixture was immediately measured by a spectrophotometer with time. As a control, the absorbance at 475 mμ of a 30% aqueous solution of propylene glycol instead of the above test solution was measured with time.
FIG. 1 is a graph to illustrate the effect described above, and agreement of the line showing the absorbance in the case of 3-hydroxy-4(H)-pyran-4-one with the abscissa (time) of the graph clearly indicates the remarkable effect of the 3-hydroxy-4(H)-pyran-4-one.

melasma on human face = assay: Action on the melanization in the human skin (melasma, ointment application); type: in vivo; conditions: 3 times a day, 3 months, 10 volunteers
Text: Action of 3-hydroxy-4(H)-pyran-4-one and acyl derivatives thereof on the melanization in the human skin.
The test substance was mixed and dissolved in a hydrophilic ointment according to the Japanese Pharmacopoeia and applied to a melasma on one side of each human face 3 times a day. In the control, only the hydrophilic ointment was applied to a melasma on the other side of the human face in the similar way.

[2] = Germicidal action and antibiotic-like action
Reducing action = type: physicochemical
tyrosinase [3] = assay: Inhibitory action of pretreated (hydrolyzed) 3-acyloxy-4(H)-pyran-4-one on tyrosinase activity; type: biochemical; conditions: 1.0% solution pretreated by hydrolysis at pH 11.0 or 2.0, 70° C., 30 minutes; L-tyrosine, pH 6.8, 37° C., absorbance at 475 mμ
Procedure: 3-Acetoxy-4(H)-pyran-4-one was dissolved in ethanol, and the solution was adjusted to pH 6.0 with succinic acid or potassium carbonate to give a 1.0% 3-acetoxy-4(H)-pyran-4-one solution.
As the pretreatment, two samples (each 10 ml) were taken from the solution. To the two samples were added 1% Na2 CO3 and 0.01% HCl to adjust the pH to 11.0 and 2.0, respectively. The adjusted samples were hydrolyzed by heating at 70° C. with stirring for 30 minutes.
To a test tube were added 1 ml of a L-tyrosine solution (0.3 mg/ml), 1 ml of McIlvaine's buffer solution (pH 6.8) and 0.9 ml of the 3-acetoxy-4(H)-pyran-4-one solution pretreated as described above. The mixture was incubated at 37° C. for 10 minutes, and 0.1 ml of a tyrosinase solution (1 mg/ml) was added thereto and stirred thoroughly. The absorbance at 475 mμ was immediately determined by a spectrophotometer with time. On the other hand, the absorbance of water was determined similarly with time as a control.

[4] = tested on: purified bacterial lipase; assay: Enzymatic hydrolysis of acyl compounds by purified bacterial lipase (ferric chloride coloring); type: in vitro ADME; set-up: key: +: light wine color; ++: deep wine color; +++: dark wine color; --: no coloration; ±: indistinct coloration; conditions: 0.05M substrate emulsion, 37° C., 1 hr
Procedure: (§1) (1) Substrate solution: A solution containing 2% polyvinyl alcohol in M/15 phosphate buffer solution (pH 7.0) was prepared. The respective acyl compounds were added to the solution in a concentration of 0.05M and homogenized in a homogenizer to give emulsions.
(§2) (2) Enzymatic solution: 30 mg of purified bacterial lipase was dissolved in 100 ml of water. As an organic crude enzymatic solution, there was used a triturated solution of a shaved skin and pancreas of a rat weighing about 200 g.
(§3) (3) The compositions were as follows:
(§4) The composition was incubated at 37° C. for 1 hr, and the reaction was stopped by 5% metaphosphoric acid. 0.5 ml of ferric chloride reagent (0.1% aqueous solution) was added to 5 ml of the supernatant liquid after the centrifugal precipitation to observe the coloring (wine color) thereof.

[5] = tested on: triturated solution of a shaved skin of a rat; assay: Enzymatic hydrolysis of acyl compounds by rat skin homogenate (ferric chloride coloring); type: in vitro ADME; set-up: key: +: light wine color; ++: deep wine color; +++: dark wine color; --: no coloration; ±: indistinct coloration; conditions: 0.05M substrate emulsion, 37° C., 1 hr
Procedure: as §1, §2, §3, §4

[6] = tested on: triturated solution of pancreas of a rat; assay: Enzymatic hydrolysis of acyl compounds by rat pancreas homogenate (ferric chloride coloring); type: in vitro ADME; set-up: key: +: light wine color; ++: deep wine color; +++: dark wine color; --: no coloration; ±: indistinct coloration; conditions: 0.05M substrate emulsion, 37° C., 1 hr
Procedure: as §1, §2, §3, §4

Reducing action (Reducing action)	SMILES	Inhibitory action on tyrosinase activity (tyrosinase [1])	Results: Effective (number of volunteers) (melasma on human face; 0.5% in hydrophilic ointment)	Results: Ineffective (number of volunteers) (melasma on human face; 0.5% in hydrophilic ointment)	Results: Remarkably effective (number of volunteers) (melasma on human face; 0.5% in hydrophilic ointment)	Results: Effective (number of volunteers) (melasma on human face; 1% in hydrophilic ointment)	Results: Ineffective (number of volunteers) (melasma on human face; 1% in hydrophilic ointment)	Results: Remarkably effective (number of volunteers) (melasma on human face; 1% in hydrophilic ointment)	Mutagenicity (Mutagenicity)	Germicidal action and antibiotic-like action [2]	Inhibitory action on tyrosinase activity (tyrosinase [3])	Ratio of formation of 3-hydroxy-4(H)--pyran-4-one, Bacterial lipase (purified) [4]	Ratio of formation of 3-hydroxy-4(H)--pyran-4-one, Homogenate Rat's skin [5]	Ratio of formation of 3-hydroxy-4(H)--pyran-4-one, Homogenate Rat's pancreas [6]	Results: Effective (number of volunteers) (melasma on human face; 2% in hydrophilic ointment)	Results: Ineffective (number of volunteers) (melasma on human face; 2% in hydrophilic ointment)	Results: Remarkably effective (number of volunteers) (melasma on human face; 2% in hydrophilic ointment)
weak reducing action	O=c1ccocc1O [3-hydroxy-4(H)-pyran-4-one]	stronger inhibitory action on the tyrosinase activity than 3-hydroxy-chromone (chromonol) and kojic acid, and a far stronger inhibitory action than vitamin C	3	2	5	2	0	8	no mutagenicity	deficient in germicidal action and antibiotic-like action	–	–	–	–	–	–	–
–	CC(=O)Oc1coccc1=O [3-acetoxy-4(H)-pyran-4-one, 3-Acetoxy-4(H)-pyran-4-one]	–	–	–	–	–	–	–	–	–	Results similar to those of the 3-hydroxy-4(H)-pyran-4-one	+	+++	+++	–	–	–
–	CCCCCCCCCCCCCCCC(=O)Oc1coccc1=O [3-palmitoyloxy-4(H)--pyran-4-one, 3-palmitoyloxy-4(H)-pyran-4-one]	–	2	3	5	4	0	6	–	–	–	±	++	++	2	0	8
